Key:
Type in all cases: in vivo
Chenopodium album [1] = assay: Test Example 4: herbicidal effect test by foliage treatment in upland field; conditions: upland field foliage treatment 7 days after sowing; 120 g/10a; evaluated 14 days after treatment
Method in brief: (§1)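 Suppression rate (%) derives from mean plant dry weight in treated versus untreated plots, measured 14 days after spraying, with two replications per plot. The emulsifiable concentrate was applied 7 days after sowing at 120 g active ingredient per 10 are.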

Echinochloa crus-galli [2] = assay: as above; conditions: upland field foliage treatment 7 days after sowing; 120 g/10a; evaluated 14 days after treatment
Method in brief: as §1

Amaranthus viridis [3] = assay: as above; conditions: upland field foliage treatment 7 days after sowing; 120 g/10a; evaluated 14 days after treatment
Method in brief: as §1

crabgrass [4] = assay: as above; conditions: upland field foliage treatment 7 days after sowing; 120 g/10a; evaluated 14 days after treatment
Method in brief: as §1

Echinochloa crus-galli [5] = assay: Test Example 1: herbicidal effect test by soil treatment in paddy field; conditions: 120 g/10a, paddy soil treatment just after sowing, 14 days after treatment
Method in brief: (§2)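 Weed suppression (%) was calculated at 14 days from mean plant dry weight relative to untreated pots, with duplicate pots per rate. The compound went into the flood water as a diluted emulsifiable concentrate (120 g a.i./10 are) immediately after sowing seeds 0–1 cm deep. Pots held ~3 cm water in a glasshouse.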

Monochoria vaginalis [6] = assay: as above; conditions: 120 g/10a, paddy soil treatment just after sowing, 14 days after treatment
Method in brief: as §2

Scirpus juncoides [7] = assay: as above; conditions: 120 g/10a, paddy soil treatment just after sowing, 14 days after treatment
Method in brief: as §2

Lindernia pyxidaria [8] = assay: as above; conditions: 120 g/10a, paddy soil treatment just after sowing, 14 days after treatment
Method in brief: as §2

Echinochloa crus-galli [9] = assay: Test Example 2: herbicidal effect test by treatment during growing period in paddy field; conditions: treatment 7 days after sowing, 120 g/10a, evaluated 14 days after treatment
Method in brief: (§3)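 Paddy soil in Wagner pots, flooded to ~3 cm; 30 seeds per species sown 0–1 cm deep, greenhouse-grown. Emulsifiable concentrate diluted in water and dripped into flood water 7 days after sowing at 120 g active ingredient per 10 are. Dry-weight suppression vs untreated assessed 14 days post-treatment, two replicates.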

Monochoria vaginalis [10] = assay: as above; conditions: treatment 7 days after sowing, 120 g/10a, evaluated 14 days after treatment
Method in brief: as §3

Scirpus juncoides [11] = assay: as above; conditions: treatment 7 days after sowing, 120 g/10a, evaluated 14 days after treatment
Method in brief: as §3

Lindernia pyxidaria [12] = assay: as above; conditions: treatment 7 days after sowing, 120 g/10a, evaluated 14 days after treatment
Method in brief: as §3

Chenopodium album [13] = assay: Test Example 3: herbicidal effect test by soil treatment in upland field; conditions: upland field soil treatment 1 day after sowing; 120 g/10a; evaluated 14 days after treatment
Method in brief: (§4)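 Pre-emergence soil treatment: 20 seeds of each weed were mixed into the top 1 cm of alluvial field soil in 36 cm^2 pots. One day after sowing, a water-diluted emulsifiable concentrate was sprayed on the soil at 100 liter per 10 are (120 g active ingredient per 10 are), with two replications. Suppression (%) was derived from dry weight versus untreated plots after 14 days.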

Echinochloa crus-galli [14] = assay: as above; conditions: upland field soil treatment 1 day after sowing; 120 g/10a; evaluated 14 days after treatment
Method in brief: as §4

Amaranthus viridis [15] = assay: as above; conditions: upland field soil treatment 1 day after sowing; 120 g/10a; evaluated 14 days after treatment
Method in brief: as §4

crabgrass [16] = assay: as above; conditions: upland field soil treatment 1 day after sowing; 120 g/10a; evaluated 14 days after treatment
Method in brief: as §4

Row | Compound | herbicidal effect (weed suppression rate), Chenopodium album (Chenopodium album [1]) | herbicidal effect (weed suppression rate), Echinochloa crus-galli (Echinochloa crus-galli [2]) | herbicidal effect (weed suppression rate), Amaranthus viridis (Amaranthus viridis [3]) | herbicidal effect (weed suppression rate), Crabgrass (crabgrass [4]) | weed suppression rate, Echinochloa crus-galli (Echinochloa crus-galli [5]) | weed suppression rate, Monochoria vaginalis (Monochoria vaginalis [6]) | weed suppression rate, Scirpus juncoides (Scirpus juncoides [7]) | weed suppression rate, Lindemia pyxidaria (Lindernia pyxidaria [8]) | weed suppression rate, Echinochloa crus-galli (Echinochloa crus-galli [9]) | weed suppression rate, Monochoria vaginalis (Monochoria vaginalis [10]) | weed suppression rate, Scirpus juncoides (Scirpus juncoides [11]) | weed suppression rate, Lindemia pyxidaria (Lindernia pyxidaria [12]) | herbicidal effect (weed suppression rate), Chenopodium album (Chenopodium album [13]) | herbicidal effect (weed suppression rate), Echinochloa crus-galli (Echinochloa crus-galli [14]) | herbicidal effect (weed suppression rate), Amaranthus viridis (Amaranthus viridis [15]) | herbicidal effect (weed suppression rate), Crabgrass (crabgrass [16])
1 | CC(C)N(C(=O)n1ncn(S(=O)(=O)C2CCC2)c1=O)c1ccc(F)cc1F [Compound 1-269] | 80% | 80% | 90% | 90% | 100% | 100% | 90% | 100% | 100% | 90% | 90% | 100% | 90% | 90% | 90% | 90%
2 | CC(C)N(C(=O)n1ncn(S(=O)(=O)C2CCCC2)c1=O)c1ccc(F)cc1F [Compound 1-284] | 80% | 80% | 90% | 90% | 100% | 100% | 100% | 100% | 90% | 90% | 90% | 90% | 90% | 90% | 60% | 90%
3 | CC(C)N(C(=O)n1ncn(S(=O)(=O)C2CCCCC2)c1=O)c1ccccc1 [Compound 1-295] | 80% | 80% | 90% | 90% | 90% | 80% | 90% | 80% | 90% | 80% | 90% | 80% | 80% | 80% | 90% | 90%
4 | CC(C)N(C(=O)n1ncn(S(=O)(=O)C2CCCCC2)c1=O)c1ccc(F)cc1 [Compound 1-298] | 80% | 80% | 90% | 90% | 90% | 80% | 90% | 90% | 90% | 90% | 90% | 90% | 80% | 80% | 90% | 90%
5 | CC(C)N(C(=O)n1ncn(S(=O)(=O)C2CCCCC2)c1=O)c1cccc(F)c1F [Compound 1-305] | 80% | 90% | 80% | 100% | 100% | 100% | 100% | 100% | 100% | 100% | 100% | 100% | 80% | 100% | 80% | 100%
6 | CC(C)N(C(=O)n1ncn(S(=O)(=O)C2CCCCC2)c1=O)c1c(F)cccc1F [Compound 1-308] | 40% | 90% | 60% | 90% | 100% | 80% | 100% | 100% | 100% | 100% | 100% | 90% | 40% | 90% | 40% | 90%
7 | CC(C)N(C(=O)n1ncn(S(=O)(=O)C2CCCCC2)c1=O)c1ccc(F)cc1Cl [Compound 1-313] | 80% | 80% | 90% | 90% | 90% | 80% | 90% | 80% | 90% | 80% | 90% | 80% | 80% | 80% | 90% | 90%
8 | CC(C)N(C(=O)n1ncn(S(=O)(=O)C2CCCCC2)c1=O)c1ccc(Cl)cc1Br [Compound 1-318] | 60% | 80% | 60% | 80% | 100% | 90% | 100% | 90% | 100% | 80% | 80% | 80% | 50% | 100% | 50% | 100%
9 | Cc1cc(C)c(S(=O)(=O)n2cnn(C(=O)N(c3ccc(F)c(F)c3F)C(C)C)c2=O)c(C)c1 [Compound 1-899] | 80% | 100% | 100% | 100% | 100% | 90% | 100% | 100% | 100% | 100% | 100% | 80% | 60% | 80% | 90% | 80%

From patent US11076595B2, “1-(n,n-disubstituted carbamoyl) 4-(substituted sulfonyl)triazolin-5-one derivative, 4-(n,n-disubstituted carbamoyl) 1-(substituted sulfonyl)triazolin-5-one derivative, and herbicide containing said derivative as active ingredient” (HOKKO CHEMICAL INDUSTRY CO., LTD., priority 2017, dated 2021)
